Test results taken from the supplement of paper PMC12317010.
Counter-ions that a name gives are not always drawn.

Assay: collision cross section in nitrogen (drift tube, single-field); higher = larger gas-phase ion size
[1] = ion type: [M+H], ion source: APCI, ion mode: Positive
[2] = ion type: [M+H], ion source: ESI, ion mode: Positive
[3] = ion type: [M-H], ion source: ESI, ion mode: Negative
[4] = ion type: [M+Na], ion source: ESI, ion mode: Positive
[5] = ion source: ESI, ion mode: Positive, ion type: [M]+ (permanent cation)
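Note: chemical standards at 10 µM analysed by drift tube IMS-QTOF MS in about 3.95 torr nitrogen, mean of duplicate injections differing ≤1%, mass error below 10 ppm.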

| SMILES | collision cross section in nitrogen [1] [Å²] | collision cross section in nitrogen [2] [Å²] | collision cross section in nitrogen [3] [Å²] | collision cross section in nitrogen [4] [Å²] | further results |
| --- | --- | --- | --- | --- | --- |
| NCCCN1CCOCC1 [4-Morpholinepropanamine] | 128.3 | 128.2 | – | – | – |
| CC(=O)c1c(O)c(C)c(O)c2c1OC1=CC(=O)C(C(C)=O)C(=O)C12C (stereo not given) [Usnic acid] | – | – | 177.1 | – | – |
| CC(C)c1cccc(C(C)C)c1O [Propofol] | – | – | 143.5 | – | – |
| CC(C)(O)c1ccc(CNC(=O)c2cccnc2Oc2ccc(F)cc2)cc1 | 201.1 | – | 196.7 | 190.4 | – |
| O=C(OCCOCCOC(=O)c1ccccc1)c1ccccc1 [Diethylene glycol dibenzoate] | – | – | – | 180.8 | – |
| CCOc1cc(C=O)ccc1O [3-Ethoxy-4-hydroxybenzaldehyde] | – | – | 133.6 | – | – |
| CCCC1COC(Cn2cncn2)(c2ccc(Cl)cc2Cl)O1 (stereo not given) [Propiconazole] | 180.9 | 179.8 | – | – | – |
| CCOC(=O)C(C)Oc1ccc(Oc2nc3ccc(Cl)cc3o2)cc1 (stereo not given) [Fenoxaprop-ethyl] | 190.2 | 189.3 | – | 189.1 | – |
| CCCCCCCCCCCCCC(=O)OCCCC [Butyl myristate] | – | – | 177.6 | – | – |
| O=C1N=CC(Cl)=CC1Cl (stereo not given) [3,5-Dichloro-2-pyridone] | – | – | 123.4 | – | – |
| C=CC(=O)NC(C)(C)CC(C)=O [Diacetone acrylamide] | – | – | – | 145.2 | – |
| NCc1cccnc1 [3-(Aminomethyl)pyridine] | 118.5 | 119.6 | – | – | – |
| Cc1cc2c3c(c1)C(c1ccccc1)=N[C@@H](NC(=O)c1ccncc1)C(=O)N3CC2 [CI-1018] | 201.9 | 200.9 | 195 | 210.1 | – |
| O=C(Nc1cccc(C(F)(F)F)c1)c1cc(Br)cc(Br)c1O [Fluorosalan] | – | – | 175.5 | – | – |
| CCN(Cc1cccc(S(=O)(=O)O)c1)c1ccccc1 [3-((Ethylphenylamino)methyl)benzenesulfonic acid] | – | 161.1 | 175.5 | 174.9 | – |
| CN1C(=O)c2ccccc2C1=O [N-Methylphthalimide] | 129 | – | – | – | – |
| COCc1nnc(-c2ccc[n+]([O-])c2)n1-c1c(Cl)c(Cl)cc2[nH]c(=O)c(=O)[nH]c12 | – | 193.1 | 190.9 | 193.2 | – |
| S=c1[nH]c(=S)[nH]c(=S)[nH]1 [Trisodium 2,4,6-trithioxo-1,3,5-triazinane-1,3,5-triide] | – | – | 125.6 | – | – |
| COc1cc2ncnc(Nc3cccc(Cl)c3)c2cc1OC [N-(3-Chlorophenyl)-6,7-dimethoxyquinazolin-4-amine] | 177.3 | 171 | 177.1 | – | – |
| COc1ccccc1OCC(O)COC(N)=O (stereo not given) [Methocarbamol] | – | – | – | 154.6 | – |
| N=C1C=CC(=C(c2ccc(N)cc2)c2ccc(N)cc2)C=C1 [C.I. Basic Red 9 monohydrochloride] | 173.3 | 174.1 | 177.9 | – | collision cross section in nitrogen (ion type: [M+], ion source: APCI, ion mode: Positive): 173.7 Å² |

| SMILES | collision cross section in nitrogen [1] [Å²] | collision cross section in nitrogen [2] [Å²] | collision cross section in nitrogen [3] [Å²] | collision cross section in nitrogen [4] [Å²] | further results |
| --- | --- | --- | --- | --- | --- |
| CN(c1nccc(=O)[nH]1)C1CCN(c2nc3ccccc3n2Cc2ccc(F)cc2)CC1 [Mizolastine] | 204.1 | 203.7 | 204.5 | 209.6 | – |
| CC(=O)Nc1ccc(N=Nc2cc(C)ccc2O)cc1 [C.I. Disperse Yellow 3] | 167.8 | 168.2 | 168.7 | – | – |
| C[C@]12CC[C@H]3[C@@H](CC[C@@]45O[C@@H]4C(O)=C(C#N)C[C@]35C)[C@@H]1CC[C@@H]2O [Trilostane] | – | – | 186.2 | – | – |
| O=[N+]([O-])c1ccc([As](=O)(O)O)cc1 [Nitarsone] | – | 144.4 | 138.9 | – | – |
| O=C(Nc1ccccc1)c1cc(Cl)ccc1O [5-Chlorosalicylanilide] | – | – | 151.9 | – | – |
| CC(C)c1cccc(O)c1 [3-Isopropylphenol] | – | – | 132.9 | – | – |
| Cc1cn([C@H]2C[C@H](N=[N+]=[N-])[C@@H](CO)O2)c(=O)[nH]c1=O [3'-Azido-3'-deoxythymidine] | – | – | 159.9 | – | – |
| O=S1(=O)OC(c2ccc(O)cc2)(c2ccc(O)cc2)c2ccccc21 [Phenol Red sodium salt] | – | 179.8 | 181.8 | – | – |
| COc1ccc2sc(C(=O)Nc3nnn[nH]3)c(OC(C)C)c2c1 [CI-959] | – | – | 178.6 | 190.1 | – |
| Cc1cc(C)c(C(=O)P(=O)(c2ccccc2)c2ccccc2)c(C)c1 [Diphenyl(2,4,6-trimethylbenzoyl)phosphine oxide] | – | – | – | 191.1 | – |
| Oc1ccc(Oc2ccccc2)cc1 [4-Phenoxyphenol] | – | – | 145.7 | – | – |
| COc1ccccc1NC(=O)CC(C)=O [N-(2-Methoxyphenyl)-3-oxobutanamide] | – | – | – | 152.3 | – |
| CCCCCCCCCCCCCOS(=O)(=O)O [Sodium tridecyl sulfate] | – | – | 170 | – | – |
| O=[N+]([O-])c1ccc2c(c1)Cc1ccccc1-2 [2-Nitrofluorene] | – | – | 141.1 | – | – |
| CCCOC(=O)NCCCN(C)C [Propamocarb hydrochloride] | 142.7 | 143.4 | – | – | – |
| NC(=O)c1cccnc1 [Niacinamide] | 125.7 | – | – | – | – |
| Nc1ccc2c(c1)C(=O)c1ccccc1C2=O [2-Aminoanthraquinone] | – | – | 144.9 | – | – |
| CC[N+](CC)(CC)CC [Tetraethylammonium bromide] | – | – | – | – | collision cross section in nitrogen [5]: 125.7 Å² |
| CCNc1nc(NC(C)C)nc(OC)n1 [Atraton] | – | 150.5 | – | 168.1 | – |
| CCOP(=S)(OCC)SCSP(=S)(OCC)OCC [Ethion] | – | – | – | 182.3 | – |
| CC(CCl)OP(=O)(OC(C)CCl)OC(C)CCl (stereo not given) [Tris(2-chloroisopropyl)phosphate] | – | – | – | 171.9 | – |

| SMILES | collision cross section in nitrogen [1] [Å²] | collision cross section in nitrogen [2] [Å²] | collision cross section in nitrogen [3] [Å²] | collision cross section in nitrogen [4] [Å²] | further results |
| --- | --- | --- | --- | --- | --- |
| CCCCCCCCCCCC(=O)N(C)CC(=O)O [Glycine, N-methyl-N-(1-oxododecyl)-, sodium salt] | – | – | 169.5 | 175.8 | – |
| CCCCCCCCCCOC(=O)c1ccccc1C(=O)OCCCCCCCC [Octyl decyl phthalate] | – | 222.5 | – | 219.1 | – |
| CCOP(=O)(N=C1SCCS1)OCC [Phosfolan] | 150.2 | 150.2 | – | 165.3 | – |
| O=C(NC(=O)c1cc(F)c(F)cc1Cl)Nc1cc(F)ccc1N1CCC(C(=O)O)CC1 [AVE2865] | 202.7 | 202.4 | 196.2 | 195.9 | – |
| C[C@]12CC[C@@H]3c4ccc(O)cc4CC[C@H]3[C@@H]1C[C@@H](O)[C@@H]2O [Estriol] | – | – | 178.1 | – | – |
| CCCCCCCCCCCC[N+](C)(C)C [Dodecyltrimethylammonium chloride] | – | – | – | – | collision cross section in nitrogen (ion source: APCI, ion mode: Positive, ion type: [M]+ (permanent cation)): 175.2 Å²; collision cross section in nitrogen [5]: 175.9 Å² |
| N[C@@H](Cc1c[nH]c2ccccc12)C(=O)O [l-Tryptophan] | – | – | 151.6 | – | – |
| Cc1ccc(N2C(=O)C=CC2=O)cc1N1C(=O)C=CC1=O [Toluene-2,4-dimaleimide] | 163.3 | – | – | – | – |
| CC(C)Nc1nc(Cl)nc(NC(C)C)n1 [2,4-Bis(isopropylamino)-6-chloro-1,3,5-triazine] | 154.9 | 155.3 | – | – | – |
| CC1=Nc2ccc3ccccc3c2C1(C)C [1,1,2-Trimethyl-1H-benzo[e]indole] | 145.8 | 146.7 | – | – | – |
| CCOC(=O)COc1ccc2c(c1)CC(NCC(O)c1cccc(Cl)c1)CC2 (stereo not given) | 192.3 | 192.2 | 194.5 | 198.6 | – |
| Cc1ccc(C(=O)c2cc(O)c(O)c([N+](=O)[O-])c2)cc1 [Tolcapone] | – | – | 162.8 | – | – |
| O=C1OC2(c3ccccc31)c1cc(I)c(O)c(I)c1Oc1c2cc(I)c(O)c1I [FD&C Red 3] | 211.7 | 211.4 | 217.9 | – | – |
| CCOc1ccc(NC(=O)OC(C)C)cc1OCC [Diethofencarb] | – | – | 171.9 | 177.1 | – |
| COC(=O)CCc1cc(C(C)(C)C)c(O)c(C(C)(C)C)c1 [Methyl 3,5-bis(tert-butyl)-4-hydroxyhydrocinnamate] | – | – | 178.7 | 176.2 | – |
| CCCCCc1ccc(O)cc1 [4-Pentylphenol] | – | – | 146.9 | – | – |
| CC(C)Oc1ccc(S(=O)(=O)c2ccc(O)cc2)cc1 [4-((4-Isopropoxyphenyl)sulfonyl)phenol] | 180.9 | 171.8 | 174.8 | 187.9 | – |
| Cn1sccc1=O [2-Methyl-3(2H)-isothiazolone] | 117.1 | 117.9 | – | – | – |
| C[C@@H](Oc1ccc(CNC(=O)c2cccnc2Oc2ccc3c(c2)OCO3)c(F)c1)C(=O)O | – | 196.3 | 202.7 | 197.1 | – |
| Cc1ccccc1O [o-Cresol] | – | – | 120.4 | – | – |
| Cc1cccc(O)c1C [2,3-Dimethylphenol] | – | – | 126.6 | – | – |
